In brackets after ≈: the same amount, converted by molar mass. Where two headings read alike, the source gives them in different places.

This data set in a line: Aqueous solubility in different cyclodextrin solutions (excess compound, shaken 24 hours, HPLC). The format is physicochemical. The settings on record: aqueous cyclodextrin solution, thermodynamic from solid, room temperature, read-out: Solubility in CD's solution (concentration of compound). Here is the method:
In order to test the effect of various CDs on the aqueous solubility of compound IVE, 1 mL of each of the following aqueous solutions as described in Table 2 was prepared. […] Excess IVE was present in all samples at all times to obtain solubility. After 24-hours, the samples were centrifuged. […] The size of the compound may allow it to form an inclusion complex, resulting in a higher aqueous solubility.
In order to test the effect of various CDs on the aqueous solubility of compound IVP, 1 mL of each of the following aqueous solutions as described in Table 3 was prepared. […] Excess IVP was present in all samples at all times. After 24-hours, the samples were centrifuged. […] The size of the compound may allow it to form an inclusion complex, resulting in a higher aqueous solubility.
In order to test the effect of various CDs on the aqueous solubility of compound IVO, 1 mL of each of the following aqueous solutions as described in Table 4 was prepared. […] Excess IVO was present in all samples at all times. After 24-hours, the samples were centrifuged. […] The size of the compound may allow it to form an inclusion body complex, resulting in a higher aqueous solubility.
In order to test the effect of various CDs on the aqueous solubility of compound IVQ, 1 mL of each of the following aqueous solutions as described in Table 5 was prepared. […] Excess IVQ was present in all samples at all times. After 24-hours, the samples were centrifuged. […] The size of the compound may allow it to form an inclusion body complex, resulting in a higher aqueous solubility.

[1] abbreviates: aqueous with cosolvent or surfactant or cyclodextrin, ACD 40 mg/ml.
Setting [2] is: aqueous with cosolvent or surfactant or cyclodextrin, HPBCD 100 mg/ml.
Setting [3] is: aqueous with cosolvent or surfactant or cyclodextrin, MBCD 100 mg/ml.
[4] abbreviates: aqueous with cosolvent or surfactant or cyclodextrin, SBEBCD 100 mg/ml.
Setting [5] is: aqueous with cosolvent or surfactant or cyclodextrin, HPGCD 100 mg/ml.

On to `O=C1NC(=O)C(c2occc2Sc2ccc(OCc3cccc(C(F)(F)F)c3)cc2)N1` (centres unmarked) [IVQ, 5-{3-[4-(3-Trifluoromethyl-benzyloxy)phenylthio]fur-2-yl}imidazolidine-2,4-dione], for which the solubility at 24 h by setting is: under setting [1], 111 µg/mL (≈ 248 µM); under setting [2], 1220 µg/mL (≈ 2710 µM); under setting [3], 5780 µg/mL (≈ 12900 µM); under setting [4], 641 µg/mL (≈ 1430 µM); (water, ACD 0 mg/ml) 138 µg/mL (≈ 308 µM); (water, HPBCD 0 mg/ml) 138 µg/mL (≈ 308 µM). Besides, the solubility at 24 h runs as follows: (water, HPGCD 0 mg/ml) 138 µg/mL (≈ 308 µM); (water, MBCD 0 mg/ml) 138 µg/mL (≈ 308 µM); (water, SBEBCD 0 mg/ml) 138 µg/mL (≈ 308 µM).
For the compound `COc1cccc(COc2ccc(Sc3ccoc3C3NC(=O)NC3=O)cc2)c1` (centres unmarked) [IVE, 5-{3-[4-(3-Methoxybenzyloxy)phenylthio]fur-2-yl}imidazolidine-2,4-dione], the solubility at 24 h amounted to 53 µg/mL (≈ 129 µM) under setting [1]; 744 µg/mL (≈ 1810 µM) under setting [2]; 59 µg/mL (≈ 144 µM) under setting [5]; 3250 µg/mL (≈ 7920 µM) under setting [3]; 815 µg/mL (≈ 1990 µM) under setting [4]; 23 µg/mL (≈ 56 µM) (water, ACD 0 mg/ml). Moreover, the solubility at 24 h is 23 µg/mL (≈ 56 µM) (water, HPBCD 0 mg/ml); 23 µg/mL (≈ 56 µM) (water, HPGCD 0 mg/ml); 23 µg/mL (≈ 56 µM) (water, MBCD 0 mg/ml); 23 µg/mL (≈ 56 µM) (water, SBEBCD 0 mg/ml).
With `Cc1ccccc1COc1ccc(Sc2ccoc2C2NC(=O)NC2=O)cc1` (centres unmarked) [IVP, 5-{3-[4-(2-Methyl-benzyloxy)phenylthio]fur-2-yl}imidazolidine-2,4-dione], the solubility at 24 h runs as follows: under setting [1], 15 µg/mL (≈ 38 µM); under setting [2], 727 µg/mL (≈ 1840 µM); under setting [5], 1 µg/mL (≈ 2.54 µM); under setting [3], 6270 µg/mL (≈ 15900 µM); under setting [4], 805 µg/mL (≈ 2040 µM); (water, ACD 0 mg/ml) 64 µg/mL (≈ 162 µM). Also, the solubility at 24 h (water, HPBCD 0 mg/ml) is 64 µg/mL (≈ 162 µM); the solubility at 24 h (water, HPGCD 0 mg/ml) turned out to be 64 µg/mL (≈ 162 µM); the solubility at 24 h (water, MBCD 0 mg/ml) was found to be 64 µg/mL (≈ 162 µM); the solubility at 24 h (water, SBEBCD 0 mg/ml) is 64 µg/mL (≈ 162 µM).
